Assay results reported in US8410144B2, “Substituted indolo-pyridinone compounds” (ArQule, Inc., priority 2009, dated 2013).

How the values were obtained:
NCI-H1299 = experiment: MTS assay, NCI-H1299 cells; assay type: cell-based; conditions: Homo sapiens, 72 hours, read-out: NCI-H1299, MTS cell kill % inhibition
How it was run: (§1)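 First, seed 3000 cells per well in low-serum (1% FBS) DMEM and culture 18 h. Next, add compounds prepared at 300× in DMSO and diluted 1:40 in DMEM; incubate 72 h. Finally, add MTS/PMS for 4 h and measure absorbance at 492 nm.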

KATO III = experiment: MTS assay, KATO III cells; assay type: cell-based; conditions: Homo sapiens, 72 hours, read-out: KATO III, MTS cell kill % inhibition
How it was run: as §1

DLD-1 = experiment: MTS assay, DLD-1 cells; assay type: cell-based; conditions: Homo sapiens, 72 hours, read-out: DLD-1, MTS cell kill % inhibition
How it was run: as §1

MDA-MB-231 = experiment: MTS assay, MDA-MB-231 cells; assay type: cell-based; conditions: Homo sapiens, 72 hours, read-out: MDA-MB-231, MTS cell kill % inhibition
How it was run: as §1

IGF-1R = IGF-1R (Homo sapiens, UniProt P08069); experiment: IGFR1 activity assay (ELISA); assay type: biochemical; conditions: read-out: IGF-1R, PCT INH (30 μM), ELISA
How it was run: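 IGF1R (0.33 ng/μL final) phosphorylating Pyk-2 (0.05 ng/μL final) in buffer with 12.5 μM ATP, 10 mM MgCl2, 1 h room temperature. Product captured on streptavidin plates, detected with anti-phosphotyrosine and alkaline phosphatase secondary antibody, Attophos fluorescent readout.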

Sequence of IGF-1R (P08069 31-1367): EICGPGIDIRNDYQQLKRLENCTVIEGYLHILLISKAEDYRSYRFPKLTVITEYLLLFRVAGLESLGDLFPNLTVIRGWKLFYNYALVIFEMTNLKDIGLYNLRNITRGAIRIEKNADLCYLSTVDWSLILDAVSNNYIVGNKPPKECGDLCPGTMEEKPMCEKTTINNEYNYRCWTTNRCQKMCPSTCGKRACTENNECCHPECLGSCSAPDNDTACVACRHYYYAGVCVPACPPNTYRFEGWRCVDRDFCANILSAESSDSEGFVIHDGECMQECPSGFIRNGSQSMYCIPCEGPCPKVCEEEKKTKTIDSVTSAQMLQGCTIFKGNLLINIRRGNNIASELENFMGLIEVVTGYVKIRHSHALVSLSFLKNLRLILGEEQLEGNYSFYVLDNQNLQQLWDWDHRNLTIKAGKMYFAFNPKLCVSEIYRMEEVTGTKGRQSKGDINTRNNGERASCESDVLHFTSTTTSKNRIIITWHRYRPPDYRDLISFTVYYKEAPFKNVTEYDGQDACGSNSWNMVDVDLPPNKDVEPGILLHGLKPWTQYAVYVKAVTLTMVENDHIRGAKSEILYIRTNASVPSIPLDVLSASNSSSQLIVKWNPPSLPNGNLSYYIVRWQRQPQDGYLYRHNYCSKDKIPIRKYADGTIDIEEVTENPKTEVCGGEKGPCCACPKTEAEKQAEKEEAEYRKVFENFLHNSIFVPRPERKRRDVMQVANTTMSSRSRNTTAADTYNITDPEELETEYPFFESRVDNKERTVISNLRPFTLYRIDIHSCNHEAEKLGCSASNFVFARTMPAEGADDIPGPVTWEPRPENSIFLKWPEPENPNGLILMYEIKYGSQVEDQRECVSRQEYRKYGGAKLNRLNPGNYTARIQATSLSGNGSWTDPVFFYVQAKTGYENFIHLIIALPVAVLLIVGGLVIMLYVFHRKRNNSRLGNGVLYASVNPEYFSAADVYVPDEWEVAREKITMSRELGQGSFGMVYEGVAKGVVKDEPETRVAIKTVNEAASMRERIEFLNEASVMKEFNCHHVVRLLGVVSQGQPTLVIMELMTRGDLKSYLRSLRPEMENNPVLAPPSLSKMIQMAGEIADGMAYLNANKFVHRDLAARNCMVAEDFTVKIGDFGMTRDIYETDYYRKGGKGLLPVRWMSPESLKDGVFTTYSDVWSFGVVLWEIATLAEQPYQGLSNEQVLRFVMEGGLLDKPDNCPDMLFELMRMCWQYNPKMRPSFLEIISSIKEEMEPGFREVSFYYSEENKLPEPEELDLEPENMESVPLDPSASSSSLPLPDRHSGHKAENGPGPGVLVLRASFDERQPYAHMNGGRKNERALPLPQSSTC

| melting point [°C] | inhibition at 30 µM (IGF-1R) [%] | Structure (SMILES) | inhibition at 10 µM (NCI-H1299) [%] | inhibition at 10 µM (KATO III) [%] | inhibition at 10 µM (DLD-1) [%] | inhibition at 10 µM (MDA-MB-231) [%] |
| --- | --- | --- | --- | --- | --- | --- |
| 92 to 97 | < 50 | CN(Cc1cccnc1)C(=O)c1ccc2[nH]c(-c3ccc[nH]c3=O)c(-c3ccc(-c4ccccc4)cc3)c2c1 [Compound 33, 3-biphenyl-4-yl-N-methyl-2-(2-oxo-1,2-dihydropyridin-3-yl)-N-(pyridin-3-ylmethyl)-1H-indole-5-carboxamide] | 80 to 100 | 80 to 100 | 80 to 100 | 80 to 100 |
| 176 to 182 | 50 to 79 | O=C(Nc1cccc(F)c1)c1ccc2[nH]c(-c3ccc[nH]c3=O)c(-c3ccccc3)c2c1 [Compound 13, N-(3-fluorophenyl)-2-(2-oxo-1,2-dihydropyridin-3-yl)-3-phenyl-1H-indole-5-carboxamide] | 80 to 100 | 80 to 100 | 80 to 100 | 50 to 79 |
| 135 to 138 | 50 to 79 | O=C(NCCCN1CCOCC1)c1ccc2[nH]c(-c3ccc[nH]c3=O)c(-c3ccc(Cl)c(Cl)c3)c2c1 [Compound 59, 3-(3,4-dichlorophenyl)-N-(3-morpholin-4-ylpropyl)-2-(2-oxo-1,2-dihydropyridin-3-yl)-1H-indole-5-carboxamide] | 50 to 79 | 80 to 100 | 50 to 79 | < 50 |
| 279 to 283 | 80 to 100 | COc1ccc(NC(=O)c2ccc3[nH]c(-c4ccc[nH]c4=O)c(-c4ccccc4)c3c2)cc1 [Compound 29, N-(4-methoxyphenyl)-2-(2-oxo-1,2-dihydropyridin-3-yl)-3-phenyl-1H-indole-5-carboxamide] | 80 to 100 | 80 to 100 | 50 to 79 | < 50 |
| 115 to 120 | 80 to 100 | Cc1cc(C)cc(-c2c(-c3ccc[nH]c3=O)[nH]c3ccc(C(=O)NCCCN4CCOCC4)cc23)c1 [Compound 70, 3-(3,5-dimethylphenyl)-N-(3-morpholin-4-ylpropyl)-2-(2-oxo-1,2-dihydropyridin-3-yl)-1H-indole-5-carboxamide] | 80 to 100 | 80 to 100 | 80 to 100 | 80 to 100 |
